This experiment relates to MAPT 3R mRNA. As to the kind of experiment: RT-qPCR Assay to Quantify MAPT 3R mRNA in Cells. Type of experiment: cell-based. Also noted: key to EC2X: An EC2x value≥3000 nM is indicated by “inactive.”; An EC2x value between >1500 nM and ≤3000 nM is indicated by one star (*); An EC2x value between >1000 nM and ≤1500 nM is indicated by two stars (**); An EC2x value between >500 nM and ≤1000 nM is indicated by three stars (***); An EC2x value between >50 nM and ≤500 nM is indicated by four stars (****); An EC2x value≤50 nM is indicated by five stars (*****). Particulars: cells incubated with compound 24 h; 7-point concentration curve; in house MAPT minigene 3R primer/probe with GAPDH assay; EC2x interpolated from dose response curve. How it is done: RT-qPCR Assay to Quantify MAPT 3R mRNA in Cells
Test compounds were serially diluted 3.16-fold in 100% DMSO to generate a 7-point concentration curve. Aliquots of 0.5 μL of diluted compounds were transferred to a 96-well flat bottom plate by a liquid handler. An aliquot of 0.5 μL DMSO was also transferred to separate wells and used as controls. Duplicate samples were set up for each compound concentration and for the DMSO control.
Cells were thawed and incubated in cell culture media (DMEM, 1 FBS, and No antibiotic cocktail) for 72 h. Cells were trypsinized, counted, and re-suspended to a concentration of 200,000 cells/mL in cell culture media. A 100 μL aliquot of the cell suspensions were plated at 20,000 cells per well in the compound containing 96 well microtiter plate and incubated for in a cell culture incubator (37° C., […], 100% relative humidity).
After 24 h, media was aspirated from the cells and 20 μL of the RCL2 lysis buffer (10 mM Tris-HCL pH 7.4, 150 mM NaCl, […]) was added to each well and incubated at RT for 1 mi. Chilled nuclease free water (140 μL per well) was added and the plates were immediately transferred on ice. After 1 min on ice, plates were frozen at −80° C. overnight.
Preparation of RT-PCR Reaction Mixture:
An aliquot of 4 μL/well of the cell lysates was transferred using the liquid handler to the Armadillo 384-Well PCR plate containing 6 μL/well of the RT-qPCR reaction mixture that was prepared as detailed above. The plates were then sealed with MicroAmp™ Optical Adhesive Film followed by spinning down for 1 min and placed in the CFX384 thermocycler (BioRad).
The RT-qPCR was carried out at the following temperatures for the indicated time: • Step 1: 48° C. (30 min) • Step 2: 95° C. (10 min) • Step 3: 95° C. (15 sec) • Step 4: 60° C. (1 min); then, repeated Steps 3 and 4 for a total of 40 cycles.
The percent exon 4 skipping was calculated for each dose of compound treatment using Equations 1 and 2.
Data were fit to a dose response curve and the EC2x was interpolated using XLfit® statistical and curve fitting package.
An EC2x value between >1000 nM and ≤1500 nM is indicated by two stars (**). An EC2x value between >500 nM and ≤1000 nM is indicated by three stars (***). An EC2x value between >50 nM and ≤500 nM is indicated by four stars (****). An EC2x value≤50 nM is indicated by five stars (*****).
Background: In qPCR the cycle at which signal appears reflects the starting amount.

The record followed here is patent publication US20240374602A1, “METHODS FOR TREATING NEUROGENERATIVE DISEASES” (PTC THERAPEUTICS, INC., priority 2021, published 2024).

For `Cc1c(C[C@@H](C)CN)sc2c(NCc3ccco3)nc(Cl)nc12` [Cpd 72, 6-[(2R)-3-amino-2-methylpropyl]-2-chloro-N-[(furan-2-yl)methyl]-7-methylthieno[3,2-d]pyrimidin-4-amine], the EC (2-fold) lay within 1.5 to 3 µM.
On the same count and under the same terms, next, `Cc1c(C[C@H](C)NC2CCC2)sc2c(NCc3ccco3)nc(Cl)nc12` [Cpd 78, 2-chloro-6-[(2S)-2-(cyclobutylamino)propyl]-N-[(furan-2-yl)methyl]-7-methylthieno[3,2-d]pyrimidin-4-amine]: 1.5 to 3 µM; `Cc1c(C[C@H](C)N)sc2c(NCc3nccs3)nc(Cl)nc12` [Cpd 29, 6-[(2S)-2-aminopropyl]-2-chloro-7-methyl-N-[(1,3-thiazol-2-yl)methyl]thieno[3,2-d]pyrimidin-4-amine]: ≤ 0.05 µM.
Take `Cc1c(C[C@H](C)N)sc2c(NCc3ncccc3F)nc(Cl)nc12` [Cpd 59, 6-[(2S)-2-aminopropyl]-2-chloro-N-[(3-fluoropyridin-2-yl)methyl]-7-methylthieno[3,2-d]pyrimidin-4-amine]: the EC (2-fold) lay within 0.5 to 1 µM.
Same read-out and setting: next, `Cc1c(C[C@H](C)N)sc2c(NCc3cncs3)nc(Cl)nc12` [Cpd 74, 6-[(2S)-2-aminopropyl]-2-chloro-7-methyl-N-[(1,3-thiazol-5-yl)methyl]thieno[3,2-d]pyrimidin-4-amine]: ≤ 0.05 µM.
Same read-out and setting: then `Cc1c(C[C@H](C)N)sc2c(NCc3ncc(F)s3)nc(Cl)nc12` [Cpd 93, 6-[(2S)-2-aminopropyl]-2-chloro-N-[(5-fluoro-1,3-thiazol-2-yl)methyl]-7-methylthieno[3,2-d]pyrimidin-4-amine], with 0.05 to 0.5 µM; and `Cc1c(C[C@H](C)N)sc2c(NCc3cccnc3F)nc(Cl)nc12` [Cpd 60, 6-[(2S)-2-aminopropyl]-2-chloro-N-[(2-fluoropyridin-3-yl)methyl]-7-methylthieno[3,2-d]pyrimidin-4-amine], with 1.5 to 3 µM; and `Cc1c(C[C@H](C)N)sc2c(NCc3ccco3)nc(Cl)nc12` [Cpd 12, 6-[(2S)-2-aminopropyl]-2-chloro-N-[(furan-2-yl)methyl]-7-methylthieno[3,2-d]pyrimidin-4-amine], with ≤ 0.05 µM.
As for `Cc1c(C[C@H](C)N)sc2c(NCc3ccc(F)s3)nc(Cl)nc12` [Cpd 33, 6-[(2S)-2-aminopropyl]-2-chloro-N-[(5-fluorothiophen-2-yl)methyl]-7-methylthieno[3,2-d]pyrimidin-4-amine], the EC (2-fold) was in the range of 0.05 to 0.5 µM.
Same read-out and setting: then `CCc1c(C[C@H](C)N)sc2c(NCc3ccco3)nc(Cl)nc12` [Cpd 77, 6-[(2S)-2-aminopropyl]-2-chloro-7-ethyl-N-[(furan-2-yl)methyl]thieno[3,2-d]pyrimidin-4-amine], with 0.05 to 0.5 µM.
Same read-out and setting: then `C[C@H](N)Cc1sc2c(NCc3cccs3)nc(Cl)nc2c1Br` [Cpd 82, 6-[(2S)-2-aminopropyl]-7-bromo-2-chloro-N-[(thiophen-2-yl)methyl]thieno[3,2-d]pyrimidin-4-amine], with ≤ 0.05 µM.
Regarding `Cc1c(C[C@H](C)N)sc2c(NCc3nc(F)cs3)nc(Cl)nc12` [Cpd 92, 6-[(2S)-2-aminopropyl]-2-chloro-N-[(4-fluoro-1,3-thiazol-2-yl)methyl]-7-methylthieno[3,2-d]pyrimidin-4-amine], the EC (2-fold) lay in the range of 0.05 to 0.5 µM.
Still for that read-out and setting: then `CC[C@H](N)Cc1sc2c(NCc3ccns3)nc(Cl)nc2c1C` [Cpd 62, 6-[(2S)-2-aminobutyl]-2-chloro-7-methyl-N-[(1,2-thiazol-5-yl)methyl]thieno[3,2-d]pyrimidin-4-amine], with 0.05 to 0.5 µM.
As to `Cc1c(C[C@H](C)N)sc2c(NCc3c(F)cncc3F)nc(Cl)nc12` [Cpd 64, 6-[(2S)-2-aminopropyl]-2-chloro-N-[(3,5-difluoropyridin-4-yl)methyl]-7-methylthieno[3,2-d]pyrimidin-4-amine], the EC2X result was “inactive”.
With `Cc1c(C[C@H](C)N)sc2c(NCc3cccs3)nc(Cl)nc12` [Cpd 28, 6-[(2S)-2-aminopropyl]-2-chloro-7-methyl-N-[(thiophen-2-yl)methyl]thieno[3,2-d]pyrimidin-4-amine], the EC (2-fold) is ≤ 0.05 µM.
As for `Cc1ccc(CNc2nc(Cl)nc3c(C)c(C[C@H](C)N)sc23)o1` [Cpd 24, 6-[(2S)-2-aminopropyl]-2-chloro-7-methyl-N-[(5-methylfuran-2-yl)methyl]thieno[3,2-d]pyrimidin-4-amine], the EC (2-fold) was 0.05 to 0.5 µM.
Same read-out and setting: next, `Cc1csc2c(NCc3ccncc3)nc(Cl)nc12` [Cpd 23, 2-chloro-7-methyl-N-[(pyridin-4-yl)methyl]thieno[3,2-d]pyrimidin-4-amine]: 0.05 to 0.5 µM.
On the same count and under the same terms, then `Cc1nc(NCc2ccco2)c2sc(C[C@H](C)N)c(C)c2n1` [Cpd 15, 6-[(2S)-2-aminopropyl]-N-[(furan-2-yl)methyl]-2,7-dimethylthieno[3,2-d]pyrimidin-4-amine], with 0.05 to 0.5 µM; and `Cc1c(C[C@H](C)N)sc2c(NCc3sccc3F)nc(Cl)nc12` [Cpd 90, 6-[(2S)-2-aminopropyl]-2-chloro-N-[(3-fluorothiophen-2-yl)methyl]-7-methylthieno[3,2-d]pyrimidin-4-amine], with 0.05 to 0.5 µM.
Same read-out and setting: next, `Cc1c(C[C@@H](N)CO)sc2c(NCc3cccs3)nc(Cl)nc12` [Cpd 56, (2R)-2-amino-3-(2-chloro-7-methyl-4-{[(thiophen-2-yl)methyl]amino}thieno[3,2-d]pyrimidin-6-yl)propan-1-ol]: ≤ 0.05 µM.
Regarding `C[C@H](N)Cc1sc2c(NCc3cccs3)nc(Cl)nc2c1C1CC1` [Cpd 86, 6-[(2S)-2-aminopropyl]-2-chloro-7-cyclopropyl-N-[(thiophen-2-yl)methyl]thieno[3,2-d]pyrimidin-4-amine], the EC (2-fold) lay within 0.05 to 0.5 µM.
On the same count and under the same terms, next, `Cc1c(C[C@H](C)N)sc2c(NCc3ccno3)nc(Cl)nc12` [Cpd 39, 6-[(2S)-2-aminopropyl]-2-chloro-7-methyl-N-[(1,2-oxazol-5-yl)methyl]thieno[3,2-d]pyrimidin-4-amine]: 0.05 to 0.5 µM; `Cc1c(C[C@H](C)N)sc2c(NCc3cnco3)nc(Cl)nc12` [Cpd 75, 6-[(2S)-2-aminopropyl]-2-chloro-7-methyl-N-[(1,3-oxazol-5-yl)methyl]thieno[3,2-d]pyrimidin-4-amine]: 0.5 to 1 µM.
As to `Cc1cnc(CNc2nc(Cl)nc3c(C)c(C[C@H](C)N)sc23)s1` [Cpd 31, 6-[(2S)-2-aminopropyl]-2-chloro-7-methyl-N-[(5-methyl-1,3-thiazol-2-yl)methyl]thieno[3,2-d]pyrimidin-4-amine], the EC (2-fold) was in the range of 1.5 to 3 µM.
Same read-out and setting: then `CC(C)[C@H](N)Cc1cc2nc(Cl)nc(NCc3ccco3)c2s1` [Cpd 5, 6-[(2R)-2-amino-3-methylbutyl]-2-chloro-N-[(furan-2-yl)methyl]thieno[3,2-d]pyrimidin-4-amine], with 0.05 to 0.5 µM.
The same measure, in the same setting: next, `Cc1c(C[C@@H](N)CCO)sc2c(NCc3ccco3)nc(Cl)nc12` [Cpd 97, (3S)-3-amino-4-(2-chloro-4-{[(furan-2-yl)methyl]amino}-7-methylthieno[3,2-d]pyrimidin-6-yl)butan-1-ol]: ≤ 0.05 µM; `Cc1c(C[C@H](C)N)sc2c(NCc3ccco3)nc(Br)nc12` [Cpd 38, 6-[(2S)-2-aminopropyl]-2-bromo-N-[(furan-2-yl)methyl]-7-methylthieno[3,2-d]pyrimidin-4-amine]: 0.5 to 1 µM; `Cc1c(C[C@@H](N)CCF)sc2c(NCc3ccco3)nc(Cl)nc12` [Cpd 51, 6-[(2S)-2-amino-4-fluorobutyl]-2-chloro-N-[(furan-2-yl)methyl]-7-methylthieno[3,2-d]pyrimidin-4-amine]: ≤ 0.05 µM.
